Data taken from patent EP4043466B1, “PRC2 INHIBITORS” (Mirati Therapeutics, Inc., priority 2018, dated 2019).

Tests used:
[1] = target: purified human, His-tagged PRC2 complex (Homo sapiens, UniProt O75530+Q15910); assay: Hot Spot HMT assay: inhibition of PRC2 enzymatic activity (transfer of tritiated methyl from SAM to core histone, filter binding); assay type: biochemical; details: Inhibition of PRC2-mediated enzymatic activity; 10 nM PRC2 complex, 0.05 mg/ml core histone H3, 1 uM 3H-SAM, 1 hr at 30°C
Chain of purified human, His-tagged PRC2 complex (Q15910 whole entry): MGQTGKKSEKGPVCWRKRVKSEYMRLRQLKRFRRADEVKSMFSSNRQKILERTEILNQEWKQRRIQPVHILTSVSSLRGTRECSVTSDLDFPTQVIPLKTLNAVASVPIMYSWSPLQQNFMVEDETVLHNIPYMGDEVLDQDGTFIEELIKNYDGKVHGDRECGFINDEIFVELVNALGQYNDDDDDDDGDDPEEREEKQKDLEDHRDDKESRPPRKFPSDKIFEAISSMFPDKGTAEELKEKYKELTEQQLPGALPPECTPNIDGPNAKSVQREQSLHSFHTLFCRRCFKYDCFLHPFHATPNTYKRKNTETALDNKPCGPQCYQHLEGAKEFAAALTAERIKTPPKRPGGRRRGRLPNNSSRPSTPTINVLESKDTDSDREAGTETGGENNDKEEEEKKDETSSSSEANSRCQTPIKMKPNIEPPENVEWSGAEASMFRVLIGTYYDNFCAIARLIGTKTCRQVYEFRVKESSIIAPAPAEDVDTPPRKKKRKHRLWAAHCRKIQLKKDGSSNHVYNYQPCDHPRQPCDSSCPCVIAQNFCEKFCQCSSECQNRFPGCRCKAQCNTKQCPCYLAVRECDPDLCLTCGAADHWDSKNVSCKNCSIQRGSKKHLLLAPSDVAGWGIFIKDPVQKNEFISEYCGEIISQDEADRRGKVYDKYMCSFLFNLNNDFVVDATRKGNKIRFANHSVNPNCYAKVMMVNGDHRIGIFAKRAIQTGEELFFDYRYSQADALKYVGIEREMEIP
Chain of purified human, His-tagged PRC2 complex (O75530 whole entry): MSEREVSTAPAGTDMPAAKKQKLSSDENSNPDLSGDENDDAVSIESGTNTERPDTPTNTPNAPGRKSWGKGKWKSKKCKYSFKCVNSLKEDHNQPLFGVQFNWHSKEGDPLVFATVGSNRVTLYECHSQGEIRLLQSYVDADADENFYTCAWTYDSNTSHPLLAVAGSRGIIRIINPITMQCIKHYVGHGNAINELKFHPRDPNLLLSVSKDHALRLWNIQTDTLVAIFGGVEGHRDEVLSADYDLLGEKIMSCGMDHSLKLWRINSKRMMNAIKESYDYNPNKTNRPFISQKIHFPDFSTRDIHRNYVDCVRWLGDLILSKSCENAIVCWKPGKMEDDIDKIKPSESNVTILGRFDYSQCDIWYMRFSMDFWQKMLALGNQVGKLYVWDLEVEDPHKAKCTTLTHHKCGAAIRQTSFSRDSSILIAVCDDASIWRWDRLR
Chain of purified human, His-tagged PRC2 complex (Q15022 whole entry partner): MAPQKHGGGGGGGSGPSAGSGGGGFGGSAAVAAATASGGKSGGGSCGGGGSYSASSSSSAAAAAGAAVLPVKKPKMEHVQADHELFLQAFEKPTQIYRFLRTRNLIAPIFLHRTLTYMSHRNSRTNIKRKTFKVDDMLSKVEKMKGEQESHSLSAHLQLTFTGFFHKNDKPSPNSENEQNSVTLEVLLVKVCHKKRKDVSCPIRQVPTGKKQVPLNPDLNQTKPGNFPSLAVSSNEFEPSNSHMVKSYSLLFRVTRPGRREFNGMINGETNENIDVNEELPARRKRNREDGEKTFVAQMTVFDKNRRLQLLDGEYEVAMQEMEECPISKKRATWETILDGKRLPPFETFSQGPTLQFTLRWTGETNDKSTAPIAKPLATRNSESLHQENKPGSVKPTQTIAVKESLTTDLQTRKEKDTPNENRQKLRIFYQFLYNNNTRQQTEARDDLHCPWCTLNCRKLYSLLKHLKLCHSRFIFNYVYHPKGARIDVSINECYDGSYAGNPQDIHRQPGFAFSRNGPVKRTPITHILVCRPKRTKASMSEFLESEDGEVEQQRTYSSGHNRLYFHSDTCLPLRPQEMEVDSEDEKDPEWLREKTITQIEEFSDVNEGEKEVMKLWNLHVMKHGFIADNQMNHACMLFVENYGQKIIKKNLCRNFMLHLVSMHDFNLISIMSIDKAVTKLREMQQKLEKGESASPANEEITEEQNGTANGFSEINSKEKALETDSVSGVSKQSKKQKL
Chain of purified human, His-tagged PRC2 complex (Q6ZN18 whole entry partner): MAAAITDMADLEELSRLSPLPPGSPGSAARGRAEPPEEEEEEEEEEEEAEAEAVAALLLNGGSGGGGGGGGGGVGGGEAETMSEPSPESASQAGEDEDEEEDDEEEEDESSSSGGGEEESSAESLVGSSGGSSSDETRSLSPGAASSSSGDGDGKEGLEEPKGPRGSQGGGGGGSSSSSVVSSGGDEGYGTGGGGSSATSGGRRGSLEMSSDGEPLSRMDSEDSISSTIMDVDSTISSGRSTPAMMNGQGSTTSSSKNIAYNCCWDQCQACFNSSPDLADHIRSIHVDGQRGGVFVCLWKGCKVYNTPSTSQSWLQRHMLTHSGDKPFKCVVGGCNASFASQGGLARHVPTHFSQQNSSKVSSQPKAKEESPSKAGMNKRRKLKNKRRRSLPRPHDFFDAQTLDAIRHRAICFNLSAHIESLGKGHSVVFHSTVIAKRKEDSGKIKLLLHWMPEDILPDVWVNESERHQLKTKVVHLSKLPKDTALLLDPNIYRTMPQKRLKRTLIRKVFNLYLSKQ
Chain of purified human, His-tagged PRC2 complex (Q09028 whole entry partner): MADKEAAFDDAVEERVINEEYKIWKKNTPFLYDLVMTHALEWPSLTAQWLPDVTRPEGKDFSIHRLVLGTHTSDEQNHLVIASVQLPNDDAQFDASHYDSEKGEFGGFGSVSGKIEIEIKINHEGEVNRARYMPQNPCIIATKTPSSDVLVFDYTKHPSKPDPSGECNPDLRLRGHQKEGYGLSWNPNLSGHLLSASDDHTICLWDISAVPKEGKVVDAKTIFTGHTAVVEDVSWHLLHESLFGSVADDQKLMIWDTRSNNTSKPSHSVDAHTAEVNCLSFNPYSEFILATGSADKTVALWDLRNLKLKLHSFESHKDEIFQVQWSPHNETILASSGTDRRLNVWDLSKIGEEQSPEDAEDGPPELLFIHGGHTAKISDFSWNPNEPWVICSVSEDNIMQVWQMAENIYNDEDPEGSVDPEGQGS
In short: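 Five-subunit complex (His-EZH2, Flag-EED, His-SUZ12, His-AEBP2, His-RbAp48) at 10 nM with 0.05 mg/ml core histone H3, pH 8 Tris buffer, 1% DMSO; 20 min compound pre-incubation at 30°C. Started with 1 uM [3H]-SAM, 1 hr at 30°C; tritiated H3 counted by scintillation. Compounds diluted from 1.0 µM top concentration.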

[2] = tested on: Karpas 422 cells; assay: Karpas 422 cell viability, CTG (Cell Titre Glo) assay; assay type: cell-based, human; details: Inhibition of proliferation of Karpas 422 cells (EZH2 Y641N), viability measured Day 4, Day 7 or Day 11, time point of the tabulated values not stated
In short: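 Karpas 422 cells (EZH2 Y641N, DLBCL) plated at 1000 cells/well in RPMI with 20% FBS, exposed to compound 10µM down to 1.5nM in 3-fold steps at 37 °C. Viability by CellTiter-Glo on Days 4, 7 and 11; Day 11 plates re-fed with fresh medium and compound on Day 7. IC50 per time point.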

[3] = tested on: PRC2-mediated histone H3 methylation; assay: Tri-Methyl Histone H3 (Lys 27) Sandwich ELISA in Pfeiffer cells: inhibition of PRC2-mediated histone H3 methylation; assay type: cell-based, human; details: Inhibition of EZH2-mediated histone H3 trimethylation, Pfeiffer cells (EZH2 A677G), 96 hours incubation
In short: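 Pfeiffer DLBCL cells (EZH2 A677G mutant) treated with 3-fold serial dilutions, 1µM to 0.15 nM final, for 96 hours at 37°C. Acid (0.4M HCl) histone extracts, neutralized, assayed by H3K27me3 sandwich ELISA with HRP/TMB read at 450 nm.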

Compound	IC50 [1]	IC50 ([2]; Homo sapiens)	IC50 ([3]; Homo sapiens)	IC50 [2]	IC50 [3]
CN1CCc2cc(-c3cnc(NCc4c(F)ccc5c4CCO5)n4cc(C#N)nc34)ccc2C1 [Example 159, 5-(((5-fluoro-2,3-dihydrobenzofuran-4-yl)methyl)amino)-8-(2-methyl-1,2,3,4-tetrahydroisoquinolin-6-yl)imidazo[1,2-c]pyrimidine-2-carbonitrile]	100 to 500 nM	≤ 250 nM	≤ 100 nM		
Cc1c(-c2cnc(NCc3c(F)ccc4c3CCO4)n3cc(C#N)nc23)ccc(CN(C)C)c1F [Example 85, 8-(4-((dimethylamino)methyl)-3-fluoro-2-methylphenyl)-5-(((5-fluoro-2,3-dihydrobenzofuran-4-yl)methyl)amino)imidazo[1,2-c]pyrimidine-2-carbonitrile]	< 100 nM	≤ 250 nM	≤ 100 nM		
N#Cc1cc(-c2cnc(NCc3c(F)ccc4c3CCO4)n3cc(C#N)nc23)ccn1 [Example 188, 8-(2-cyanopyridin-4-yl)-5-(((5-fluoro-2,3-dihydrobenzofuran-4-yl)methyl)amino)imidazo[1,2-c]pyrimidine-2-carbonitrile]	100 to 500 nM	250 to 500 nM	100 to 500 nM		
CNC(=O)c1ccc(-c2cnc(NCc3c(F)ccc4c3CCO4)n3cc(C#N)nc23)cc1 [Example 186, 4-(2-cyano-5-(((5-fluoro-2,3-dihydrobenzofuran-4-yl)methyl)amino)imidazo[1,2-c]pyrimidin-8-yl)-N-methylbenzamide]	< 100 nM	≤ 250 nM	100 to 500 nM		
Cc1cc(C(=O)N(C)C)ncc1-c1cnc(NCc2c(F)ccc3c2CCO3)n2cc(C#N)nc12 [Example 76, 5-(2-cyano-5-(((5-fluoro-2,3-dihydrobenzofuran-4-yl)methyl)amino)imidazo[1,2-c]pyrimidin-8-yl)-N,N,4-trimethylpicolinamide]	< 100 nM	≤ 250 nM	≤ 100 nM		
Cc1ccc(-c2cnc(NCc3c(F)ccc4c3CCO4)n3cc(C#N)nc23)cc1 [Example 175, 5-(((5-fluoro-2,3-dihydrobenzofuran-4-yl)methyl)amino)-8-(p-tolyl)imidazo[1,2-c]pyrimidine-2-carbonitrile]	100 to 500 nM	250 to 500 nM	> 500 nM		
CN(C)Cc1cc(F)c(-c2cnc(NCc3c(F)ccc4c3CCO4)n3cc(C#N)nc23)cc1F [Example 39, 8-(4-((dimethylamino)methyl)-2,5-difluorophenyl)-5-(((5-fluoro-2,3-dihydrobenzofuran-4-yl)methyl)amino)imidazo[1,2-c]pyrimidine-2-carbonitrile]	< 100 nM	≤ 250 nM	≤ 100 nM		
CN(C)C(=O)c1ccc(-c2cnc(NCc3c(F)ccc4c3CCO4)n3cc(C#N)nc23)cc1F [Example 36, 4-(2-cyano-5-(((5-fluoro-2,3-dihydrobenzofuran-4-yl)methyl)amino)imidazo[1,2-c]pyrimidin-8-yl)-2-fluoro-N,N-dimethylbenzamide]	< 100 nM	≤ 250 nM	≤ 100 nM		
CNCc1ccc(-c2cnc(NCc3c(F)ccc4c3CCO4)n3cc(C#N)nc23)c(C)c1 [Example 196, 5-(((5-fluoro-2,3-dihydrobenzofuran-4-yl)methyl)amino)-8-(2-methyl-4-((methylamino)methyl)phenyl)imidazo[1,2-c]pyrimidine-2-carbonitrile]	100 to 500 nM	≤ 250 nM	100 to 500 nM		
CC(c1ccc(-c2cnc(NCc3c(F)ccc4c3CCO4)n3cc(C#N)nc23)cc1)N(C)C (stereo not drawn) [Example 199, 8-(4-(1-(dimethylamino)ethyl)phenyl)-5-(((5-fluoro-2,3-dihydrobenzofuran-4-yl)methyl)amino)imidazo[1,2-c]pyrimidine-2-carbonitrile]	< 100 nM	≤ 250 nM	100 to 500 nM		
[2H]C([2H])(c1ccc(-c2cnc(NCc3c(F)ccc4c3CCO4)n3cc(C#N)nc23)c(C)c1)N(C)C [Example 173, 8-(4-((dimethylamino)methyl-d2)-2-methylphenyl)-5-(((5-fluoro-2,3-dihydrobenzofuran-4-yl)methyl)amino)imidazo[1,2-c]pyrimidine-2-carbonitrile]	< 100 nM	≤ 250 nM	≤ 100 nM		
CN(C)C(=O)c1ccc(-c2cnc(NCc3c(F)ccc4c3CCO4)n3cc(C#N)nc23)c(Cl)c1 [Example 31, 3-chloro-4-(2-cyano-5-(((5-fluoro-2,3-dihydrobenzofuran-4-yl)methyl)amino)imidazo[1,2-c]pyrimidin-8-yl)-N,N-dimethylbenzamide]	< 100 nM	≤ 250 nM	≤ 100 nM		
Cc1cc(CN(C)C)ccc1-c1cnc(NCc2c(F)ccc3c2C(O)CO3)n2cc(C#N)nc12 (stereo not drawn) [Example 207, 8-(4-((dimethylamino)methyl)-2-methylphenyl)-5-(((5-fluoro-3-hydroxy-2,3-dihydrobenzofuran-4-yl)methyl)amino)imidazo[1,2-c]pyrimidine-2-carbonitrile]	< 100 nM	≤ 250 nM	≤ 100 nM		
Cc1cc(-c2cnc(NCc3c(F)ccc4c3CCO4)n3cc(C(N)=O)nc23)n(C)n1 [Example 11, 8-(1,3-dimethyl-1H-pyrazol-5-yl)-5-(((5-fluoro-2,3-dihydrobenzofuran-4-yl)methyl)amino)imidazo[1,2-c]pyrimidine-2-carboxamide]	< 100 nM	≤ 250 nM	≤ 100 nM		
COC(=O)c1cc(-c2cnc(NCc3c(F)ccc4c3CCO4)n3cc(C#N)nc23)n(C)n1 [Example 169, methyl 5-(2-cyano-5-(((5-fluoro-2,3-dihydrobenzofuran-4-yl)methyl)amino)imidazo[1,2-c]pyrimidin-8-yl)-1-methyl-1H-pyrazole-3-carboxylate]	< 100 nM	≤ 250 nM	100 to 500 nM		
COCCOc1ccc(-c2cnc(NCc3c(F)ccc4c3CCO4)n3cc(C#N)nc23)cn1 [Example 158, 5-(((5-fluoro-2,3-dihydrobenzofuran-4-yl)methyl)amino)-8-(6-(2-methoxyethoxy)pyridin-3-yl)imidazo[1,2-c]pyrimidine-2-carbonitrile]	100 to 500 nM	250 to 500 nM	100 to 500 nM		
COCCOc1ncc(-c2cnc(NCc3c(F)ccc4c3CCO4)n3cc(C#N)nc23)cn1 [Example 191, 5-(((5-fluoro-2,3-dihydrobenzofuran-4-yl)methyl)amino)-8-(2-(2-methoxyethoxy)pyrimidin-5-yl)imidazo[1,2-c]pyrimidine-2-carbonitrile]	100 to 500 nM	250 to 500 nM	100 to 500 nM		
N#Cc1cn2c(NCc3c(F)ccc4c3CCO4)ncc(-c3cnn(CCO)c3)c2n1 [Example 182, 5-(((5-fluoro-2,3-dihydrobenzofuran-4-yl)methyl)amino)-8-(1-(2-hydroxyethyl)-1H-pyrazol-4-yl)imidazo[1,2-c]pyrimidine-2-carbonitrile]	100 to 500 nM	≤ 250 nM	100 to 500 nM		
5-(((5-fluoro-2,3-dihydrobenzofuran-4-yl)methyl)amino)-8-(2-methyl-6-morpholinopyridin-3-yl)imidazo[1,2-c]pyrimidine-2-carbonitrile [Example 56]	< 100 nM			≤ 250 nM	100 to 500 nM
CN1CCCC1c1ccc(-c2cnc(NCc3c(F)ccc4c3CCO4)n3cc(C#N)nc23)cc1 (stereo not drawn) [Example 160, 5-(((5-fluoro-2,3-dihydrobenzofuran-4-yl)methyl)amino)-8-(4-(1-methylpyrrolidin-2-yl)phenyl)imidazo[1,2-c]pyrimidine-2-carbonitrile]	< 100 nM	≤ 250 nM	≤ 100 nM		
N#Cc1cn2c(NCc3c(F)ccc4c3CCO4)ncc(-c3ccc(C(=O)N4CCOCC4)cc3)c2n1 [Example 181, 5-(((5-fluoro-2,3-dihydrobenzofuran-4-yl)methyl)amino)-8-(4-(morpholine-4-carbonyl)phenyl)imidazo[1,2-c]pyrimidine-2-carbonitrile]	< 100 nM	≤ 250 nM	100 to 500 nM		
Cc1c(-c2cnc(NCc3c(F)ccc4c3CCO4)n3cc(C#N)nc23)cnc(CN(C)C)c1F [Example 233, 8-(6-((dimethylamino)methyl)-5-fluoro-4-methylpyridin-3-yl)-5-(((5-fluoro-2,3-dihydrobenzofuran-4-yl)methyl)amino)imidazo[1,2-c]pyrimidine-2-carbonitrile]	< 100 nM	≤ 250 nM	≤ 100 nM		
5-(2-cyano-5-(((5-fluoro-2,3-dihydrobenzofuran-4-yl)methyl)amino)imidazo[1,2-c]pyrimidin-8-yl)-1-methyl-1H-pyrazole-3-carboxylic acid [Example 157]	< 100 nM			≤ 250 nM	≤ 100 nM
